{
  "source": "paper PMC12030497",
  "about": "“Plasma Protein Binding, Biostability, Metabolite Profiling, and CYP450 Phenotype of TPB15 Across Different Species: A Novel Smoothened Inhibitor for TNBC Therapy” (Pharmaceutics, 2025)",
  "key": {"[1]": {"assay": "Plasma protein binding by ultrafiltration, human plasma", "format": "in vitro ADME", "experimental": "(§1) To prepare plasma samples of TPB15 at final concentrations of 4, 8, and 16 μg/mL, 1 μL of TPB15 dissolved in dimethyl sulfoxide (DMSO) at low (400 μg/mL), medium (800 μg/mL), and high (1600 μg/mL) concentrations was added to 99 μL of blank plasma obtained from humans, rats, mice, monkeys, and dogs. Each concentration was prepared in six replicates. The samples were then divided into two groups: one for determining the pre-ultrafiltration concentration (Cpre) and the other for measuring the post-ultrafiltration concentration (Ct), following the evaluation of the non-specific binding coefficient (NSB) of TPB15 to the ultrafiltration tubes. For Cpre determination, 10 μL of the sample was mixed with 990 μL of plasma, vortexed thoroughly, and analyzed for drug concentration using the previously reported liquid chromatography–tandem mass spectrometry (LC-MS/MS) method. For Ct determination, the samples were first incubated in a water bath at 37 °C for 3 h. After incubation, they were transferred to ultrafiltration tubes and centrifuged at 14,000 rpm for 20 min at 4 °C using a centrifuge (Sigma 3K-15) from Sigma Laborzentrifugen GmbH (Osterode am Harz, Germany). After centrifugation, 10 μL of the ultrafiltrate was mixed with 990 μL of plasma, vortexed, and analyzed for concentration using the same LC-MS/MS method. The formula for calculating the plasma protein binding rate (PPB) is as follows: PPB (%) = [1 − Ct/(1 − NSB)/Cpre] × 100%. (NSB: non-specific binding coefficient. […])."}, "[2]": {"assay": "Plasma protein binding by ultrafiltration, rat plasma", "format": "in vitro ADME, SD rat", "experimental": "as §1"}, "[3]": {"assay": "Plasma protein binding by ultrafiltration, monkey plasma", "format": "in vitro ADME, cynomolgus monkey", "experimental": "as §1"}, "[4]": {"parameters": "method as in PMID 39158678", "conditions": "pharmacokinetic studies in rats; cited from earlier work"}},
  "data": [
    {"smiles": "O=C(Nc1ccc(Cl)c(-c2nnc3c(Cl)cccn23)c1)c1ccc(Cl)nc1Cl", "note": "[TPB15]", "values": [
      {"measurement": "fraction unbound at 3 h", "setting": "[1]; human plasma, 4 to 16 μg/mL, read-out: average plasma protein binding rates, range over concentrations", "value": "0.179 to 0.185"},
      {"measurement": "fraction unbound at 3 h, 4 μg/mL", "setting": "[1]; human, plasma, 4 μg/mL TPB15, ultrafiltration, 37 °C 3 h", "value": 0.185},
      {"measurement": "fraction unbound at 3 h, 8 μg/mL", "setting": "[1]; human, plasma, 8 μg/mL TPB15, ultrafiltration, 37 °C 3 h", "value": 0.183},
      {"measurement": "fraction unbound at 3 h, 16 μg/mL", "setting": "[1]; human, plasma, 16 μg/mL TPB15, ultrafiltration, 37 °C 3 h", "value": 0.179},
      {"measurement": "fraction unbound at 3 h", "setting": "[2]; SD, rat plasma, 4 to 16 μg/mL, read-out: average plasma protein binding rates, range over concentrations", "value": "0.176 to 0.191"},
      {"measurement": "fraction unbound at 3 h, 4 μg/mL", "setting": "[2]; Sprague-Dawley, rat, plasma, 4 μg/mL TPB15, ultrafiltration, 37 °C 3 h, read-out: Plasma Protein Binding (%) SD Rat (converted)", "value": 0.183},
      {"measurement": "fraction unbound at 3 h, 8 μg/mL", "setting": "[2]; Sprague-Dawley, rat, plasma, 8 μg/mL TPB15, ultrafiltration, 37 °C 3 h, read-out: Plasma Protein Binding (%) SD Rat (converted)", "value": 0.191},
      {"measurement": "fraction unbound at 3 h, 16 μg/mL", "setting": "[2]; Sprague-Dawley, rat, plasma, 16 μg/mL TPB15, ultrafiltration, 37 °C 3 h, read-out: Plasma Protein Binding (%) SD Rat (converted)", "value": 0.176},
      {"measurement": "fraction unbound at 3 h, 4 μg/mL", "setting": "[3]; cynomolgus monkey, plasma, 4 μg/mL TPB15, ultrafiltration, 37 °C 3 h", "value": 0.185},
      {"measurement": "fraction unbound at 3 h, 8 μg/mL", "setting": "[3]; cynomolgus monkey, plasma, 8 μg/mL TPB15, ultrafiltration, 37 °C 3 h", "value": 0.188},
      {"measurement": "fraction unbound at 3 h, 16 μg/mL", "setting": "[3]; cynomolgus monkey, plasma, 16 μg/mL TPB15, ultrafiltration, 37 °C 3 h", "value": 0.178},
      {"measurement": "fraction unbound at 3 h", "setting": "[3]; monkey plasma, 4 to 16 μg/mL, read-out: average plasma protein binding rates, range over concentrations", "value": "0.178 to 0.188"},
      {"measurement": "half-life in rats", "setting": "[4]", "value": "relatively long half-life"}
    ]}
  ]
}
